{"source": "patent US10112978B2", "about": "“Peptide and use thereof” (OSAKA UNIVERSITY, priority 2014, dated 2018)", "key": {"C57BL/6 mice": {"test_system": "C57BL/6 mice", "test": "Induction of WT1-specific immunity in mice (ELISpot of splenocytes)", "format": "in vivo", "details": "group (3): WT1 peptide 15 μg/mouse + OSK-1 100 μg/mouse, once a week for 4 weeks", "method": "The OSK-1 peptide and a WT1 peptide were conjugated via ε-Acp as a spacer to form an “OSK-1-WT1 conjugate vaccine”. The OSK-1-WT1 conjugate vaccine was evaluated for the ability to induce WT1-specific immunity in mice. Mice were divided into the following 5 groups (3 animals per group): (1) physiological saline, (2) WT1 peptide (15 μg/mouse)+Incomplete Freund's Adjuvant (IFA, SIGMA; Cat#F5506, 50 μL/mouse), (3) WT1 peptide (15 μg/mouse)+OSK-1 (100 μg/mouse), (4) OSK-1-WT1 conjugate vaccine (50 μg/mouse), and (5) OSK-1-WT1 conjugate vaccine (300 μg/mouse). In each group, the test substance was administered to C57BL/6 mice once a week for 4 weeks. At 2 weeks after the 4th administration, the spleen was excised from each immunized mouse, and the ELISpot assay was performed. The specific procedure is as follows. Splenocytes were prepared from the excised spleen and seeded on a filter plate coated with an anti-IL-4 antibody or an anti-IFNγ antibody. The WT1 peptide or the OSK-1-WT1 peptide was added to the wells, and the splenocytes were cultured for 3 days. After that, each well of the filter plate was stained and the spots of IL-4- or IFNγ-producing cells was counted."}, "[1]": {"test_system": "LPS-primed RAW 264.7 cells", "test": "Cytokine production in LPS-primed RAW 264.7 cells (ELISA)", "format": "cell-based, mouse", "details": "about 16 hours", "method": "RAW 264.7 cells were suspended at 1×10^6 cells/mL in DMEM medium containing 50 ng/mL LPS and 10% FBS, and incubated in a CO2 incubator for 3 hours for cell priming. The cell suspension was centrifugated, the cells were resuspended at 1×10^6 cells/mL in DMEM medium containing 10% FBS, and the cell suspension was added to a 24-well plate at 500 μL/well. An OSK-1 solution was prepared at a 2-fold higher concentration than the final concentration in DMEM medium containing 10% FBS and added to the plate at 500 μL/well. After about 16 hours, the culture supernatant was harvested, and the cytokine concentrations in the supernatant were measured by ELISA."}}, "data": [{"sequence": "ELKLIFLHRLKRLRKRLKRK (Ac-ELKLIFLHRLKRLRKRLKRK-NH2) [OSK-1]", "values": [{"measurement": "IFNγ-producing cells in response to stimulation with the WT1 peptide (ELISpot)", "setting": "C57BL/6 mice", "value": "more cells produced IFNγ in response to the stimulation with the WT1 peptide"}, {"measurement": "production of the cytokines (IL-1β, IL-18, TNFα and IL-6)", "setting": "[1]", "value": "induced the production of the cytokines in the LPS-primed RAW 264.7 cells in an OSK-1 concentration dependent manner"}]}]}
